Assay results reported in patent US20090305894A1, “use of sulfonanilides as herbicide” (priority 2005, published 2009).

Columns and labels:
Format in all cases: in vivo
[1] = system: Triticum aestivum; assay: Herbicide damage to crops in dry field, spraying treatment to stems and leaves after sprouting (Test Example 5, Table 13); details: 80 g ai/ha, rated after 3 weeks
Description: (§1) The formulations of active compounds were obtained as emulsions by mixing 1 part by weight of the active compound with the carrier and emulsifier in the described amounts. The formulations were diluted with water so as to adjust a prescribed dosage.
In a greenhouse seeds of rice (cultivar: Balilla) and weeds (Brachiaria plantaginea, Cyperus esculntus, Cyperus iria L., Echinochloa colonum, Leptochloa chinensis, Ipomoea purpurea, and Sesbania exaltata) were inoculated on the surface layers of pots filled with 100 cm^2 of paddy field soil and covered with soil. Water was poured to produce wet state (water level 0 cm). The prescribed diluted solutions of the formulations of the respective active compounds obtained in the same manner as in Test Example 1 were sprayed on the soil of some pots on completion of the seeding and the solutions of the agents were sprayed over the plants from the above in the rest of the pots after the respective sample plants were grown in first- to third-1 eaf stage in the greenhouse. After one day from the treatment with the compound, water was poured in 3 cm depth. […] When herbicidal effect was 80% or higher, it was determined to be practically applicable as herbicides. When the herbicide damage was 20% or lower, the safety of the herbicide was evaluated to be excellent. […]

[2] = system: Lindernia procumbens Philcox (resistant to sulfonylurea type herbicide); assay: Herbicidal efficacy test to weeds resistant to sulfonylurea type herbicide (Test Example 1, applied on water surface, Table 8); details: 60 g ai/ha, applied on water surface at beginning of sprouting, rated after 3 weeks; 100% = complete withering, 0% = no effect
Description: (§2) Preparation of formulation of active compound
(§3) Carrier: DMF 5 parts by weight
(§4) Emulsifier: benzyloxypolyglycol ether 1 part by weight
as §1
(§5) In a greenhouse respective seeds of Scirpus juncoides Roxburgh (from Hokkaido, Japan) and Lindernia procumbens Philcox (from Saitama, Japan), which are confirmed to have resistance to a sulfonylurea type herbicide, were inoculated in pots filled with 500 cm^2 of paddy field soil and water was poured to the pot in about 2 to 3 cm depth. At the beginning of sprouting of the weeds, prescribed diluted solutions of the formulations of the respective active compounds obtained by the above-mentioned manner were applied on the water surface. After the treatment water depth of 3 cm was kept. The herbicidal effect was investigated after 3 weeks of the treatment. The herbicidal effect was rated as 100% in the case of complete withering and 0% in the case of no herbicidal effect. When the herbicidal effect was 80% or higher, the practical effectiveness as herbicides is recognized. As the representative examples, the test results of the compound Nos. 1, 3, 4, 5, 6, 7, 13, 70, 127, 128 and 130 are shown in Table 8.

[3] = system: Scirpus juncoides Roxburgh (resistant to sulfonylurea type herbicide); assay: as above; details: 60 g ai/ha, applied on water surface at beginning of sprouting, rated after 3 weeks; 100% = complete withering, 0% = no effect
Description: as §2, §3, §4, §1, §5

[4] = system: Viola mandshurica; assay: Herbicidal effect on weeds in dry field, spraying treatment to stems and leaves after sprouting (Test Example 5, Table 13); details: 80 g ai/ha, rated after 3 weeks
Description: as §1
(§6) In a greenhouse seeds of rice (cultivar: Balilla) and weeds (Brachiaria plantaginea, Cyperus esculntus, Cyperus iria L., Echinochloa colonum, Leptochloa chinensis, Ipomoea purpurea, and Sesbania exaltata) were inoculated on the surface layers of pots filled with 100 cm^2 of paddy field soil and covered with soil. Water was poured to produce wet state (water level 0 cm). The prescribed diluted solutions of the formulations of the respective active compounds obtained in the same manner as in Test Example 1 were sprayed on the soil of some pots on completion of the seeding and the solutions of the agents were sprayed over the plants from the above in the rest of the pots after the respective sample plants were grown in first- to third-1 eaf stage in the greenhouse. After one day from the treatment with the compound, water was poured in 3 cm depth. The herbicidal effects and herbicide damage on rice of the respective compounds were investigated after 3 weeks from the treatment. The herbicidal effect and herbicide damage on the rice were rated as 100% in the case of complete withering and 0% in the case of no herbicidal effect or no harm. When herbicidal effect was 80% or higher, it was determined to be practically applicable as herbicides. When the herbicide damage was 20% or lower, the safety of the herbicide was evaluated to be excellent.
(§7) In a green house one seed each of crops in dry field (Triticum aestivum) and weeds (Veronica persica and Viola mandshurica) were inoculated in the surface layer in one pot filled with 16 cm^2 of dry field soil and covered with soil. After the sample plants were grown to second- and third-leaf stages at the greenhouse, the prescribed diluted solutions of the formulations of the respective active compounds obtained in the same manner as in Test Example 1 were sprayed over the plants from the above. The herbicidal effect and herbicide damage on crops of the respective compounds were investigated after 3 weeks from the treatment. Evaluations of the herbicidal effect and herbicide damage were carried out in the same manner as in Test Example 3.

[5] = system: Veronica persica; assay: as above; details: 80 g ai/ha, rated after 3 weeks
Description: as §1, §6, §7

[6] = system: Echinochloa crus-gali; assay: Herbicidal effect on weeds in dry field, spraying treatment on soil before sprouting (Test Example 4, Table 12); details: 80 g ai/ha, spraying to soil before sprouting, rated after 3 weeks
Description: as §1, §6
(§8) In a greenhouse one seed each of crops in dry field (Triticum aestivum and Glycine max) and weeds (Echinochloa crus-gali and Setaria vividis) were inoculated in the surface layer in one pot filled with 16 cm^2 of dry field soil and covered with soil. The prescribed diluted solutions of the formulations of the respective active compounds obtained in the same manner as in Test Example 1 were sprayed to the soil upon the inoculation. The herbicidal effect and herbicide damage on crops of the respective compounds were investigated after 3 weeks from the treatment. Evaluations of the herbicidal effect and herbicide damage were carried out in the same manner as in Test Example 3. As the representative example, the test results of compound No. 1 and 24, and the comparative compound C-1 are shown in Table 12.

[7] = system: Setaria vividis; assay: as above; details: 80 g ai/ha, spraying to soil before sprouting, rated after 3 weeks
Description: as §1, §6, §8

[8] = system: Triticum aestivum; assay: Herbicide damage to crops in dry field, spraying treatment on soil before sprouting (Test Example 4, Table 12); details: 80 g ai/ha, rated after 3 weeks
Description: as §1, §6, §8

[9] = system: Glycine max; assay: as above; details: 80 g ai/ha, rated after 3 weeks
Description: as §1, §6, §8

[10] = system: rice (cultivar: Balilla); assay: Irrigated directly seeded paddy rice, herbicide damage, spraying to soil before sprouting (Test Example 3, Table 10); details: 20 g ai/ha, rated after 3 weeks
Description: as §1, §6

[11] = system: rice (cultivar: Balilla); assay: Irrigated directly seeded paddy rice, herbicide damage, spraying to stems and leaves after sprouting (Test Example 3, Table 11); details: 20 g ai/ha, rated after 3 weeks
Description: as §1, §6

[12] = system: Cyperus esculntus; assay: Irrigated directly seeded paddy rice, herbicidal effect, spraying to soil before sprouting (Test Example 3, Table 10); details: 20 g ai/ha, rated after 3 weeks
Description: as §1, §6

[13] = system: Brachiaria plantaginea; assay: as above; details: 20 g ai/ha, rated after 3 weeks
Description: as §1, §6

[14] = system: Sesbania exaltata; assay: as above; details: 20 g ai/ha, rated after 3 weeks
Description: as §1, §6

[15] = system: Ipomoea purpurea; assay: as above; details: 20 g ai/ha, rated after 3 weeks
Description: as §1, §6

[16] = system: Cyperus iria L.; assay: as above; details: 20 g ai/ha, rated after 3 weeks
Description: as §1, §6

[17] = system: Leptochloa chinensis; assay: as above; details: 20 g ai/ha, rated after 3 weeks
Description: as §1, §6

[18] = system: Echinochloa colonum; assay: as above; details: 20 g ai/ha, rated after 3 weeks
Description: as §1, §6

[19] = system: Cyperus esculntus; assay: Irrigated directly seeded paddy rice, herbicidal effect, spraying to stems and leaves after sprouting (Test Example 3, Table 11); details: 20 g ai/ha, rated after 3 weeks
Description: as §1, §6

[20] = system: Brachiaria plantaginea; assay: as above; details: 20 g ai/ha, rated after 3 weeks
Description: as §1, §6

[21] = system: Sesbania exaltata; assay: as above; details: 20 g ai/ha, rated after 3 weeks
Description: as §1, §6

[22] = system: Ipomoea purpurea; assay: as above; details: 20 g ai/ha, rated after 3 weeks
Description: as §1, §6

[23] = system: Cyperus iria L.; assay: as above; details: 20 g ai/ha, rated after 3 weeks
Description: as §1, §6

[24] = system: Leptochloa chinensis; assay: as above; details: 20 g ai/ha, rated after 3 weeks
Description: as §1, §6

[25] = system: Echinochloa colonum; assay: as above; details: 20 g ai/ha, rated after 3 weeks
Description: as §1, §6

COc1cc(OC)nc(C(Cl)c2cccc(F)c2NS(=O)(=O)C(F)F)n1 (stereo not drawn) [compound 13]
Herbicide damage Triticum aestivum [1]: 0% | Herbicidal effect to sulfonylurea resistant weeds: Lindernia procumbens Philcox (from Saitama pref.) [2]: 100% | Herbicidal effect to sulfonylurea resistant weeds: Scirpus juncoides Roxburgh (from Hokkaido) [3]: 100% | Herbicidal effect Viola mandshurica [4]: 100% | Herbicidal effect Veronica persica [5]: 100%

COc1nc(OC)nc(C(=O)c2cccc(F)c2N(C)S(=O)(=O)C(F)F)n1 [Compound No. 1]
Herbicidal effect Echinochloa crus-gali [6]: 90% | Herbicidal effect Setaria vividis [7]: 80% | Herbicidal effect to sulfonylurea resistant weeds: Scirpus juncoides Roxburgh (from Hokkaido) [3]: 100% | Herbicide damage Triticum aestivum [8]: 0% | Herbicide damage Glycine max [9]: 20% | Herbicide damage on Rice [10]: 20% | Herbicide damage on Rice [11]: 20% | Herbicidal effect Cyperus esculntus [12]: 100% | Herbicidal effect Brachiaria plantaginea [13]: 80% | Herbicidal effect Sesbania exaltata [14]: 100% | Herbicidal effect Ipomoea purpurea [15]: 90% | Herbicidal effect Cyperusiria L. [16]: 100% | Herbicidal effect Leptochloa chinensis [17]: 100% | Herbicidal effect Echinochloa colonum [18]: 100% | Herbicidal effect Cyperus esculntus [19]: 100% | Herbicidal effect Brachiaria plantaginea [20]: 100% | Herbicidal effect Sesbania exaltata [21]: 100% | Herbicidal effect Ipomoea purpurea [22]: 90% | Herbicidal effect Cyperusiria L. [23]: 100% | Herbicidal effect Leptochloa chinensis [24]: 80% | Herbicidal effect Echinochloa colonum [25]: 100%

COc1cc(OC)nc(C(O)c2cccc(F)c2NS(=O)(=O)C(F)(F)F)n1 (stereo not drawn) [C-1, reference compound]
Herbicidal effect Echinochloa crus-gali [6]: 0% | Herbicidal effect Setaria vividis [7]: 0% | Herbicide damage Triticum aestivum [1]: 0% | Herbicide damage Triticum aestivum [8]: 0% | Herbicide damage Glycine max [9]: 20% | Herbicidal effect Viola mandshurica [4]: 30% | Herbicidal effect Veronica persica [5]: 60%
